The test has as its target T1, Tyrosine-protein phosphatase non-receptor type 11 (Homo sapiens, UniProt Q06124).
T1 sequence (Q06124 whole entry): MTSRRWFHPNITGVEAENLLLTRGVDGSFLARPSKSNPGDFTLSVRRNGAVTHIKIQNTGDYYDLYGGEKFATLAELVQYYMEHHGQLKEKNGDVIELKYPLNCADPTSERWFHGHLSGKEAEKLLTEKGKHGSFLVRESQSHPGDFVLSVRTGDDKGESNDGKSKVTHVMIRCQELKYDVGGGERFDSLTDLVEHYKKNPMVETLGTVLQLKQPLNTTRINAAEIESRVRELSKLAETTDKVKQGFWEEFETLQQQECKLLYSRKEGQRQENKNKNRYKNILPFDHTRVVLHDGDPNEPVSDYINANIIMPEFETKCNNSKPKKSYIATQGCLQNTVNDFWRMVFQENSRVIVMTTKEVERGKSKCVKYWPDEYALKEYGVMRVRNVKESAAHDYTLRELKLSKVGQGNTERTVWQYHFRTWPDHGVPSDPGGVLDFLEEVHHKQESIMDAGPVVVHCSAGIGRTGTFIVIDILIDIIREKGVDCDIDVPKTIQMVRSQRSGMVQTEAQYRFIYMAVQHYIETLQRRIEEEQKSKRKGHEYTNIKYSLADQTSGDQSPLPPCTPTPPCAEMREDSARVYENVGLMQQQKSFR
The experiment in a line: Inhibition Assay. How it is done:
After 30-60 minutes incubation at 25° C., the surrogate substrate DiFMUP (Invitrogen, cat #D6567) was added to the reaction and incubated at 25° C. for 30 minutes. The reaction was then quenched by the addition of 5 μl of a 160 μM solution of bpV(Phen) (Enzo Life Sciences cat #ALX-270-204). The fluorescence signal was monitored using a microplate reader (Envision, Perki-Elmer) using excitation and emission wavelengths of 340 nm and 450 nm, respectively. The inhibitor dose response curves were analyzed using normalized IC50 regression curve fitting with control based normalization.

For 2 compounds, IC50 results are on record in BindingDB's records for patent US10934285 (Novartis, 2021).

For orientation: IC50 means the concentration that gives 50% inhibition. Read a high IC50 as weaker potency.

Consider `CN(c1cnc(Sc2cccc(NC(=O)c3c(O)nc4n(c3=O)CCCC4)c2Cl)c(N)n1)C1CC(C)(C)NC(C)(C)C1` [US10934285, Example 21], for which the IC50 was determined as 5380 nM.

`CC1(CN)CCN(c2nnc(Sc3cccc(NC(=O)c4c(O)n5c(ccc6ccccc65)nc4=O)c3Cl)c(N)n2)CC1` [US10934285, Example 38] came in with a concentration for half-maximal inhibition (IC50) of 15 nM.
